Laboratory results published in patent US4440779A, “Tricyclic derivatives of substituted pyrrole acids as analgesic and anti-inflammatory agents” (Merck & Co., Inc., priority 1982, dated 1984).

Tests used:
[1] = test system: edema induced by carragenin in rat foot; test: rat foot edema assay (carragenin-induced edema, C.F.E.); assay type: in vivo, rat (Sprague Dawley); conditions: 1 h before carragenin, read at 3 h; for inhibition in vivo at 3 mg/kg: 3 mg/kg oral; for inhibition in vivo at 10 mg/kg: 10 mg/kg oral; for inhibition in vivo at 20 mg/kg: 20 mg/kg oral; for inhibition in vivo at 30 mg/kg: 30 mg/kg oral
Procedure: The rat foot edema assay for determining anti-inflammatory activity is based on the ability of the compounds of Formula I to inhibit the edema induced by the injection of an inflammatory (phlogistic) agent into the tissues of the foot of a rat. Several groups of six male rats (Sprague Dawley strain, 150±30 g each) are given orally the compounds to be tested one hour before 0.1 ml of a 1% suspension of carragenin in 0.5% methocel is injected into the planar surface of each rat's right hind paws. Immediately and again three hours later, the foot volume is measured and recorded. The difference between the initial and final volumes is a measurement of the edema produced. Usually the compounds to be tested are suspended or dissolved in 0.5% methocel, and their activities measured against that produced by a known anti-inflammatory agent e.g., zomepirac (U.S. Pat. No. 3,952,012) according to standard procedure. The activity of a tested compound is also compared with that produced by a "control" rat which receives only the methocel solution. A test of 3 mg/kg, 10 mg/kg plus one dose of 30 mg/kg are usually given.

[2] = test system: gastric mucosa; test: Gastric Hemorrhage Lesion Formation Assay (GHLF); assay type: in vivo, rat (Sprague-Dawley); conditions: fasted, 4 h
Procedure: In other words, they induce less gastric irritation than Zompirac. The GHLF test is conducted according to the following procedure:
Rats (Sprague-Dawley, Males, 120-180 gm) are fasted overnight and dosed orally with drug suspended in 0.5% methylcellulose. The drug concentration is adjusted so that each animal received 1.0 ml/100 gm body weight. Four hours later the animals are killed by asphixiation in carbon dioxide, the stomachs removed, cut open and everted. The mucosal lining is washed and examined under 3X magnification. The lesions are identified as perforations of the gastric mucosa, many of which perforate right through the wall of the stomach.
The results are expressed in two ways, the average number of lesions per stomach, and the number of animals in the group showing at least one lesion.

Animals with lesions ([2]; 90 mg/kg oral)	Ave. lesions per animal ([2]; 90 mg/kg oral)	SMILES	inhibition in vivo at 3 mg/kg [1]	inhibition in vivo at 10 mg/kg [1]	inhibition in vivo at 20 mg/kg [1]	inhibition in vivo at 30 mg/kg [1]	also measured
2/6	0.33	Cc1ccc2c(c1)OCc1cc(CC(=O)O)n(C)c1C2=O [7-CH3 / OCH2 / H, 1,7-dimethyl-4,10-dihydro-10-oxo-1H[1]benzoxepino[4,3-b]-pyrrole-2-acetic acid]	32.1%	39.9%	42.6%	–	Animals with lesions ([2]; 30 mg/kg oral): 0/6; Ave. lesions per animal ([2]; 30 mg/kg oral): 0; Animals with lesions ([2]; 60 mg/kg oral): 1/6; Ave. lesions per animal ([2]; 60 mg/kg oral): 0.16; Animals with lesions ([2]; 120 mg/kg oral): 4/6; Ave. lesions per animal ([2]; 120 mg/kg oral): 3.3
–	–	CC(C(=O)O)c1cc2c(n1C)C(=O)c1ccc(Cl)cc1CC2 (stereo not drawn) [7-Cl / CH2CH2 / CH3, 1,4,5,10-Tetrahydro-7-chloro-1,α-dimethyl-10-oxobenzocyclohepta[1,2-b]pyrrole-2-acetic acid]	–	–	36.8%	59%	–
–	–	Cn1c(CC(=O)O)cc2c1C(=O)c1ccc(Cl)cc1CC2 [7-Cl / CH2CH2 / H]	29.9%	41.5%	–	57.5%	Animals with lesions ([2]; 100 mg/kg oral): 1/5; Ave. lesions per animal ([2]; 100 mg/kg oral): 0.2; Animals with lesions ([2]; 300 mg/kg oral): 0/5; Ave. lesions per animal ([2]; 300 mg/kg oral): 0; Animals with lesions ([2]; 600 mg/kg oral): 4/5; Ave. lesions per animal ([2]; 600 mg/kg oral): 1.8
–	–	Cn1c(CC(=O)O)cc2c1C(=O)c1ccc(Cl)cc1CO2 [7-Cl / CH2O / H]	–	–	50%	–	–
–	–	CC(C(=O)O)c1cc2c(n1C)C(=O)c1ccc(Cl)cc1OC2 (stereo not shown) [7-Cl / OCH2 / CH3]	–	–	–	60%	–
5/6	5.0	Cn1c(CC(=O)O)cc2c1C(=O)c1ccc(Cl)cc1OC2 [7-Cl / OCH2 / H, 7-chloro-4,10-dihydro-1-methyl-10-oxo-1H-[1]benzoxepino[4,3-b]pyrrole-2-acetic acid]	46%	64%	–	54%	Animals with lesions ([2]; 60 mg/kg oral): 0/6; Ave. lesions per animal ([2]; 60 mg/kg oral): 0
–	–	Cn1c(CC(=O)O)cc2c1C(=O)c1ccc(Cl)cc1SC2 [7-Cl / SCH2 / H, 7-Chloro-4,10-dihydro-1-methyl-10-oxo-1H-[1]benzothiepino[4,3-b]pyrrole-2-acetic acid]	–	–	–	51%	–
–	–	Cn1c(CC(=O)O)cc2c1C(=O)c1ccc(F)cc1OC2 [7-F / OCH2 / H]	–	31%	–	40%	–
2/6	1.0	COc1ccc2c(c1)OCc1cc(CC(=O)O)n(C)c1C2=O [7-OCH3 / OCH2 / H, 7-methoxy-4,10-dihydro-1-methyl-10-oxo-1H[1]-benzoxepino[4,3-b]pyrrole-2-acetic acid]	44%	–	–	61%	Animals with lesions ([2]; 120 mg/kg oral): 4/6; Ave. lesions per animal ([2]; 120 mg/kg oral): 4.0
